One may read the AC50 as the concentration at which the activity in the assay is half-maximal.

Structures are written as SMILES. Results filed as inconclusive are left out. Active and inactive are the calls of the source.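 How the source made its calls: active means compounds lowering the luciferase signal with a fitted half-maximal dose at most twice their top valid dose (cut at about 30 µM in these data); inconclusive means flat fits with moderate signal loss, or poor fits; inactive means the rest.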

The assay deals with Clone20 osteoblast Shn3 3'UTR firefly luciferase, 24 h. Description: Schnurri-3 3'UTR-luciferase signal suppressors – cell-based, Clone20 osteoblasts, luminescence, dry powder, set 2, dose response (AID 743417).
`O=C(Nc1cccc(-c2ccc(N3CCCCC3)nn2)c1)C(F)(F)F`: the AC50 is 9.07 µM.
Regarding `CCCCCCCSc1cc(OC)c(CCNC)cc1OC`, the half-maximal activity concentration (AC50) was 10.6 µM.
For `CCC(=O)NC(c1ccc(OC)c(OC)c1)c1cc(Cl)c2cccnc2c1O` (stereo not drawn) the value was under 0.26 µM; for `COc1ccc(CNC(=O)c2nc(S(=O)(=O)Cc3ccccc3)ncc2Cl)cc1`, 0.956 µM.
For `Cn1c2c(c(=O)n(C)c1=O)C(C(F)(F)F)(C(F)(F)F)N=C(c1ccc(Cl)cc1)N2` the value was 1.47 µM; for `O=C(c1cc(COc2c(F)cccc2F)on1)N1CCC(c2ccncc2)CC1`, 1.6 µM; for `COc1ccccc1CNc1nc(NCc2ccc(C(C)C)cc2)c2sccc2n1`, 6.81 µM.
With `COc1ccccc1CNc1nc(NCc2ccccc2OC)c2sccc2n1` the figure was 6.33 µM.
As to `O=C(Nc1ccccc1)Nc1cc(OCC(F)(F)F)cc(OCC(F)(F)F)c1`, the AC50 is 6.4 µM.
With `Cc1cc(C(=O)COC(=O)c2ccccc2Br)c(C)n1CC1CCCO1` (stereo not drawn) the figure was > 70 µM (inactive); with `CC(C)(C)C(=O)/C(=C/c1ccncc1)n1cncn1`, 3.27 µM.
Turning to `COc1ccc(CCNc2ncnc3sc(C)cc23)cc1OC`, the half-maximal activity concentration (AC50) was under 0.26 µM.
For `CCCc1nc2c(=O)n(C)c(=O)nc-2n(C)n1` the value was 2.17 µM; for `COc1ccc(C[C@H]2NC[C@H](O)[C@H]2OC(C)=O)cc1`, 0.882 µM; for `C=C1C(=O)[C@@]23[C@H](O)C[C@@H]4C(C)(C)CC[C@H](O)[C@@]4(C)[C@@H]2CC[C@@H]1[C@H]3O`, 1.29 µM.
Take `Clc1ccc(-c2cc(-c3nnc4n3CCCCC4)c3ccccc3n2)cc1`: the AC50 is 5.59 µM.
With `NC(c1csc(NC(=O)Nc2cccc(C(F)(F)F)c2)n1)C1CCCCC1` (stereo not drawn) the figure was 4.81 µM.
For `CC(C)CCNc1nc(N)c([N+](=O)[O-])c(N2CCCCCC2)n1` the value was 8.79 µM; for `CCOC(=O)c1c(CSc2ccc(CC)cc2)oc2ccc(O)c(CN(C)C)c12`, 3.05 µM.
For `COc1cccc(N2CCN(c3ncnc4c3cnn4-c3ccc(C)cc3C)CC2)c1` the value was 4.65 µM; for `CCc1nnc(NC(=O)c2nc(S(=O)(=O)Cc3ccccc3)ncc2Cl)s1`, 2.72 µM.
Regarding `CCn1c(CNC(=O)c2cc(OC)c(OC)c(OC)c2)cc2cc(C)ccc21`, the half-maximal activity concentration (AC50) is 2.52 µM.
Take `O=C1C=C(c2ccnc3cc(Cl)ccc23)C[C@@H](c2ccc3c(c2)OCO3)C1`: the concentration at half-maximal activity (AC50) is 1.36 µM.
For the molecule `Cc1ccccc1CS(=O)(=O)c1nnc([C@H](Cc2ccccc2)NC(=O)OC(C)(C)C)o1`, the AC50 was 1.23 µM.
For `Cc1ccc(NC(=O)C2CCN(S(=O)(=O)c3ccc(N4CCCC4=O)cc3)CC2)cc1Cl` the value was 0.549 µM; for `CCn1nc(/C=C/c2ccccc2)nc2c(=O)n(C)c(=O)nc1-2`, 2.57 µM; for `CC(CCc1ccccc1)NC(=O)COC(=O)c1ccc(S(C)(=O)=O)c([N+](=O)[O-])c1` (stereo not drawn), 3.34 µM.
For `CCS(=O)(=O)c1ncc(Cl)c(C(=O)Nc2ccc(S(=O)(=O)N(C)c3ccccc3)cc2)n1` the value was 0.308 µM; for `CCc1c(C)nc2ncnn2c1NCCc1ccc(Cl)cc1`, 2.17 µM; for `Oc1cc(-c2ccncc2)cc2cccnc12`, 5.4 µM.
With `CCOC(=O)c1cnc(-n2nc(C)cc2C)nc1NNc1cc(C)nc(-c2ccccc2)n1` the figure was 3.31 µM; with `Cc1nc(NC(C)c2ccccc2)c2oc3ccccc3c2n1` (stereo not drawn), 3.06 µM.
As to `Cc1ccccc1OCC(O)CNC1CCC(NCC(O)COc2ccccc2C)CC1` (stereo not drawn), the AC50 is 4.5 µM.
For `Cc1cc(Cl)c(S(=O)(=O)N2CCSCC2)cc1OCC(=O)NC1CCCCC1` the value was 4.11 µM.
For `NC(=O)CC(NC(=O)c1ccc(Br)cc1)c1ccc(N2CCCCCC2)c([N+](=O)[O-])c1` (stereo not drawn) the value was 7.66 µM; for `c1csc(CCNc2ncnc3sc4c(c23)CCC4)c1`, 1.7 µM; for `O=C(Nc1nc(-c2ccccn2)cs1)c1ccc(Cl)s1`, 0.817 µM.
For `CN(C)S(=O)(=O)c1ccc(Oc2ccc(S(=O)(=O)N(C)C)cc2)cc1` the value was 3.04 µM; for `O=C(Nc1ccc(S(=O)(=O)N2CCN(Cc3ccccc3)CC2)cc1)c1cnccn1`, 1.65 µM.
With `CS(=O)(=O)c1nc(-c2ccc(F)cc2)cc(C(F)(F)F)n1`, the AC50 was 2.72 µM.
With `CC(=O)NC(c1cccs1)c1cc(F)c2cccnc2c1O` (stereo not drawn) the figure was 1.67 µM; with `CCCCNc1cc(C)nc(NCc2ccccc2)n1`, 0.719 µM; with `COc1cccc(-n2c(C)nc3c(cnn3-c3ccc(Cl)cc3)c2=O)c1`, 0.391 µM.
Take `CC(C)c1ccc(NC(=O)Nc2nc(C(N)CCc3ccccc3)cs2)cc1` (stereo not drawn): the AC50 was 5.36 µM.
With `Cc1cc(Br)c2c(c1)/C(=C/C(=O)c1cccs1)C(=O)N2` the figure was 19.9 µM.
With `CCN(CC)c1ccc(CNc2nc3ccccc3n2CCN2CCCCC2)cc1` the figure was 2.64 µM; with `Cc1nc([N+](=O)[O-])c(Br)n1CC(=O)c1ccc2ccccc2c1`, 10.7 µM.
With `C=CCn1c(C)cc(C(=O)CN2C(=O)c3ccccc3S2(=O)=O)c1C` the figure was 0.974 µM; with `Cc1cccc(Nc2nc(NCc3ccco3)c3ccccc3n2)c1`, 2.05 µM; with `Cc1ccc2nc(NNC(=O)c3ccc(S(=O)(=O)N4CCc5ccccc5C4)cc3)sc2c1`, 1.62 µM.
As for `CCN(C(=O)c1ccc(C(C)(C)C)cc1)c1nnc(Cn2nnc3ccccc32)s1`, the AC50 is 1.35 µM.
With `Fc1ccc2[nH]c3c(N4CCN(c5ccccc5)CC4)ncnc3c2c1` the figure was 3.78 µM.
With `Cn1nc(C(C)(C)C)cc1C(=O)N1CCCCC1c1cc(C(=O)Nc2ccc(F)c(Cl)c2)no1` (stereo not drawn) the figure was 3.04 µM.
Take `O=C(CN(C(=O)c1ccc(Cl)cc1)C1CCCCC1)Nc1ccc(Cl)c([N+](=O)[O-])c1`: the AC50 is 8.11 µM.
Consider `O=C(Nc1ccc(N2CCOCC2)c(Cl)c1)c1ccc([N+](=O)[O-])o1`, for which the AC50 was 6.23 µM.
With `CC(C)(C)C(=O)Nc1ccc(NC(=O)c2ccco2)nc1` the figure was 1.17 µM; with `COc1ccc(C[C@H]2COC(=O)[C@@H]2Cc2ccc(OC3OC(CO)C(O)C(O)C3O)c(OC)c2)cc1OC` (stereo partly drawn), 4.43 µM; with `Oc1ccccc1C(Nc1nccs1)c1ccc2cccnc2c1O` (stereo not drawn), 1.13 µM.
On to `CC(=O)OCCCNc1cc(Sc2nc3ccccc3s2)c2nonc2c1[N+](=O)[O-]`, for which the AC50 is 4.7 µM.
For `CCS(=O)(=O)c1ncc(Cl)c(C(=O)Nc2ccc(S(=O)(=O)N3CCCC(C)C3)cc2)n1` (stereo not drawn) the value was under 0.26 µM; for `COc1ccc(C(=O)C(C)OC(=O)c2cccc(S(=O)(=O)Nc3cc(Cl)c(OC)cc3OC)c2)cc1` (stereo not drawn), 5.54 µM.
With `CCOC(=O)Cc1csc(SCC(=O)c2c(N)n(CC(C)C)c(=O)n(C)c2=O)n1` the figure was 2.35 µM.
For `CCCCNc1c(-c2ccc(OC)c(Sc3ccc(OC)cc3)c2)nc2ccccn12` the value was 0.821 µM.
For the molecule `CCN(CC)S(=O)(=O)c1ccc(N2CCOCC2)c(NC(=O)c2nn(C(C)C)c(=O)c3ccccc23)c1`, the AC50 was 15.6 µM.
With `O=C(NCc1cccc(Cl)c1)c1cc(COc2ccc3ncccc3c2)on1`, the AC50 was 3.05 µM.
For `CCOC(=O)N1CCN(C(=O)c2ccc3c(c2)N(Cc2ccc(C)cc2)CCS3)CC1` the value was 6 µM; for `COc1ccccc1N1CCN(C(=O)C2CCCN(S(=O)(=O)c3ccc4c(c3)CCCN4C(C)=O)C2)CC1` (stereo not drawn), 2.68 µM.
With `C=CS(=O)(=O)c1sc(Cl)c(N2CCOCC2)c1[N+](=O)[O-]` the figure was 1.31 µM.
For `C#CC(=O)N(c1cccc(OC)c1)C(C(=O)NC1CCCC1)c1cccs1` (stereo not drawn) the value was 3.8 µM; for `CCCCC(=O)NC(c1ccc(N(CC)CC)cc1)c1ccc2cccnc2c1O` (stereo not drawn), 1.12 µM.
In the case of `Cc1cc(Nc2cccc([N+](=O)[O-])c2)n2c(nc3ccccc32)c1C#N`, the AC50 was 1.9 µM.
For `CCCCn1c(CN2CCN(c3ccc(F)cc3)CC2)nc2c1c(=O)n(C)c(=O)n2C` the value was 2.73 µM.
For `CC1(Cc2ccc(OC(F)(F)F)cc2)C(=O)Nc2c(Cl)ccc(Cl)c21` (stereo not drawn) the value was 25.7 µM; for `Cn1c(=O)n(C)c2cc([N+](=O)[O-])c(N3CCN(S(=O)(=O)c4ccc(C(C)(C)C)cc4)CC3)cc21`, 3.53 µM; for `Cn1c(SCc2ccc(F)cc2Cl)nc2ccccc2c1=O`, 8.65 µM.
Take `COc1ccc(OC)c2sc(N(CCN(C)C)C(=O)/C=C/c3cccs3)nc12`: the AC50 is 12.7 µM.
For `O=C(NCc1cccnc1)c1ccc(-c2ccc(F)c(F)c2)c2ccoc12` the value was 3.48 µM; for `CCOC(=O)C1CCN(S(=O)(=O)c2c(Cl)ccc3nonc23)CC1`, 0.919 µM; for `O=C(c1ccc(F)cc1)C(CN1CCOCC1)c1ccccc1` (stereo not drawn), 17.6 µM.
With `Oc1c(C(c2ccccc2Cl)N2CCCC2)ccc2cccnc12` (stereo not drawn) the figure was 5.77 µM; with `Cc1cc(C)c(C(N)=O)c(SCC(=O)c2cc(C)n(-c3cc(C)on3)c2C)n1`, 0.942 µM; with `Cc1ccc(-n2cc(CNCCCn3ccnc3C)c(-c3ccc(F)cc3)n2)cc1`, 20.6 µM.
With `CC(=O)c1cn(Cc2ccccc2F)c2ccccc12` the figure was 2.96 µM; with `COc1cccc(CNCCc2c[nH]c3ccccc23)c1OCc1ccccc1`, 4.09 µM; with `COC(=O)C1=C(c2ccc(F)cc2OCc2ccccc2)C[C@@H]2CC[C@H]1N2C(=O)NC1Cc2ccccc2C1`, 8 µM.
Turning to `CCN(CC)CCn1c(=N)n(CC(O)COc2cccc(C)c2)c2ccccc21` (stereo not drawn), the half-maximal activity concentration (AC50) was 4.39 µM.
With `Cc1c(CCCl)c(Cl)n2c(nc3ccccc32)c1C#N`, the concentration at half-maximal activity (AC50) is 0.912 µM.
With `CC(C)(O)/C=C/C(=O)C(C)(O)C1C(O)CC2(C)C3CC=C4C(C=C(O)C(=O)C4(C)C)C3(C)C(=O)CC12C` (stereo not drawn) the figure was 1.83 µM; with `CCCCCCCN(c1ccccc1)[C@@H]1C[C@H]2CCCC(=O)N3CC[C@@H](C1)[C@@H]23`, 11.5 µM.
For the molecule `COC(=O)C1CN(C#N)N(c2ccc(Cl)cc2)C12c1ccccc1-c1ccccc12` (stereo not drawn), the concentration at half-maximal activity (AC50) is under 0.26 µM.
With `COC(=O)C1=C(c2ccc(F)cc2OCc2ccccc2)C[C@@H]2CC[C@H]1N2C(=O)NCc1ccc(C(F)(F)F)cc1` the figure was 9.14 µM.
As to `CC(=O)N1c2ccc(S(=O)(=O)N3CCC(C(=O)Nc4cccc(F)c4)CC3)cc2CC1C` (stereo not drawn), the AC50 is 4.54 µM.
With `CC(C)C1C(=O)N(Cc2cn(CCC3OCCO3)nn2)CCS(=O)(=O)N1Cc1ccc(-c2ccc(Cl)c(Cl)c2)cc1` (stereo not drawn) the figure was 1.28 µM.

The values above are taken from PubChem BioAssay AID743417 (Broad Institute, 2014).
